Counter-ions that a name gives are not always drawn. Like-named read-outs stand apart in the source and are kept apart here.

20 compounds from US12583861B2, “Derivatives of imidazo[4,5-d]pyridazine, their preparation and their therapeutic application” (SANOFI, priority 2021, dated 2026) can be followed below.

In one experiment the target is T1, human TLR8 (Homo sapiens, UniProt Q9NR97).
T1 construct: host or cells: HEK293 (HEK-Blue hTLR8)
T1 sequence (Q9NR97 27-1041): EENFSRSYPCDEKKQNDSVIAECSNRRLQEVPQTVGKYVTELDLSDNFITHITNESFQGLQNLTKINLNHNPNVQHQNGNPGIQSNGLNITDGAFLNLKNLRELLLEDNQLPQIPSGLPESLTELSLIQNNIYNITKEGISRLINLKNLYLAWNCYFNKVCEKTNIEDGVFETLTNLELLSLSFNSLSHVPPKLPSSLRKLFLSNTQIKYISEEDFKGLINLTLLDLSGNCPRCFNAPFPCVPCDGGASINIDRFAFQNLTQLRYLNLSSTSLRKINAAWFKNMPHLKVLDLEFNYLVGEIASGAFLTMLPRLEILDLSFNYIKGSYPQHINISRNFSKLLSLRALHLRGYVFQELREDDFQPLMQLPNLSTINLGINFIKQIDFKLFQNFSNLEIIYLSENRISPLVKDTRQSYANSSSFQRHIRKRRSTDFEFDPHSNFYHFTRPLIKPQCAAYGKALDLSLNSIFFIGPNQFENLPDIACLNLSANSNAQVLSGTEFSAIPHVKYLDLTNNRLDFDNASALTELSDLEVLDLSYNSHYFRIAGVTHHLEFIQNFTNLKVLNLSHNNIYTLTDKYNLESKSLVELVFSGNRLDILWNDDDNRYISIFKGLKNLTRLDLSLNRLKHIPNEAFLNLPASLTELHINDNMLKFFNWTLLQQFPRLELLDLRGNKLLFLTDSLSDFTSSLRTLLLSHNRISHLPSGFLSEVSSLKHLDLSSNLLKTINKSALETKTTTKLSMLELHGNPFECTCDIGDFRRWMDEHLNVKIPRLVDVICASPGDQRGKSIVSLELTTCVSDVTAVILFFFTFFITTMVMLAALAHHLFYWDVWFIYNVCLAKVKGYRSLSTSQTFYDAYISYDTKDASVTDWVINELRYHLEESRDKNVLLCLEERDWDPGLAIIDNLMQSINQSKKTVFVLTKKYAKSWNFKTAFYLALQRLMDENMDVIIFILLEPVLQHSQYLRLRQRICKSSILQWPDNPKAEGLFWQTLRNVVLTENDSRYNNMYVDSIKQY
Kind of experiment: HEK-Blue hTLR8 reporter cell assay (SEAP, NF-kB/AP-1) for stimulation of human TLR8. In kind it is cell-based. Conditions: HEK-Blue hTLR8 cells; for EC50: 24 h incubation, SEAP readout, read-out: TLR8_EC50; for activation at 20 µM: 24 h, at 20000 nM. In outline: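 HEK293 cells carrying hTLR8 and a SEAP reporter driven by NF-κB/AP-1 sites were seeded at 3.10E4 cells/well and held 18 to 24 h at 37° C., 5% CO2 before compound addition. Supernatant SEAP measured with QUANTI-Blue™.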

The target of a further experiment is T2, human TLR7 (Homo sapiens, UniProt Q9NYK1).
T2 construct: host or cells: HEK293 (HEK-Blue hTLR7)
T2 sequence (Q9NYK1 27-1049): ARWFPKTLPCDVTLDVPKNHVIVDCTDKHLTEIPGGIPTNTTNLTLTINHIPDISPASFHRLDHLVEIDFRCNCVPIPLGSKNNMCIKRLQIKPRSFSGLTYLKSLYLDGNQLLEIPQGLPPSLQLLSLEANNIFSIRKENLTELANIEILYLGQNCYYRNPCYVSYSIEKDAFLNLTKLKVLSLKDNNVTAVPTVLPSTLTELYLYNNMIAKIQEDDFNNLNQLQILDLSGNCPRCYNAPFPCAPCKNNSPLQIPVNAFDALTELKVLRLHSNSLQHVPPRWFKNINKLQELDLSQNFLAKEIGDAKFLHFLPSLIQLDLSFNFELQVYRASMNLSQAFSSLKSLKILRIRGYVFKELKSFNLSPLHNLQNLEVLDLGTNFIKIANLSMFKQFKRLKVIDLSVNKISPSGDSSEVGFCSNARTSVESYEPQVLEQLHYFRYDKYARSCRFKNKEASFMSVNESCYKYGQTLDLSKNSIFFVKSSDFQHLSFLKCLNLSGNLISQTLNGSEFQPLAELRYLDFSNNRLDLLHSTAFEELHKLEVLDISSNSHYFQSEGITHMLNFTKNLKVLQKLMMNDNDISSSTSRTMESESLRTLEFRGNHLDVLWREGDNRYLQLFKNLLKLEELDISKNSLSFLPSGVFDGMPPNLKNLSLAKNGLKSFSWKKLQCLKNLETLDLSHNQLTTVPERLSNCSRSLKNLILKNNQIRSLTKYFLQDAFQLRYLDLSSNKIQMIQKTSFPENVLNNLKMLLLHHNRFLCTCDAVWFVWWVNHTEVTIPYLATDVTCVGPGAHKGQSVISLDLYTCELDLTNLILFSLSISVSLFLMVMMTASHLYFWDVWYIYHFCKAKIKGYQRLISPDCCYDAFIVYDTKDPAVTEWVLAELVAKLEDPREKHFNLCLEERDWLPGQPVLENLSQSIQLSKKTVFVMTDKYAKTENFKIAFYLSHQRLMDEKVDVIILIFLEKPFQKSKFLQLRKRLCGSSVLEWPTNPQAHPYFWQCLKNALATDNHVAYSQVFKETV
Kind of experiment: HEK-Blue hTLR7 reporter cell assay (SEAP, NF-kB/AP-1) for stimulation of human TLR7. As to conditions: HEK-Blue hTLR7 cells; for EC50: read-out: TLR7_EC50. In kind it is cell-based. The gist of the method:
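HEK293 cells expressing hTLR7 with NF-κB/AP-1-driven SEAP reporter, seeded 3.10E4 cells/well, pre-incubated 18–24 h, then exposed to 3-fold compound dilutions (0.01–20 μM) for 24 h at 37 °C. Supernatant SEAP read with QUANTI-Blue; EC50 as concentration giving 50% activation.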

On to `CCCCc1nc2c(N)nnc(N3CCCC3)c2n1C[C@H]1CC[C@H](N)CC1` [Compound 143, 3-[(4-aminocyclohexyl)methyl]-2-butyl-4-pyrrolidin-1-yl-imidazo[4,5-d]pyridazin-7-amine], for which the EC50 at human TLR8 was over 20000 nM; on human TLR7 (24 h incubation, SEAP readout), 11 µM.
As to `CCCCc1nc2c(N)nnc(OC(C)C)c2n1Cc1ccc(CNC(=O)OCC)cc1` [Compound 111, ethyl (4-((4-amino-2-butyl-7-isopropoxy-1H-imidazo[4,5-d]pyridazin-1-yl)methyl)benzyl)carbamate], the EC50 on human TLR8 is over 20000 nM; on human TLR7 (24 h incubation, SEAP readout) it was 0.099 µM.
The like results for `CCCCc1nc2c(N)nnc(N3CCCC3)c2n1C` [Compound 42, 2-butyl-1-methyl-7-(pyrrolidin-1-yl)-1H-imidazo[4,5-d]pyridazin-4-amine] were, in that order, 8780 nM and 1.48 µM.
Regarding `CCCCc1nc2c(N)nnc(OC(C)C)c2n1Cc1ccc(CNCCOCCOC)cc1` [Compound 108, 2-butyl-7-isopropoxy-1-(4-(((2-(2-methoxyethoxy)ethyl)amino)methyl)benzyl)-1H-imidazo[4,5-d]pyridazin-4-amine], the EC50 at human TLR8 is 1400 nM; on human TLR7 (24 h incubation, SEAP readout), 0.029 µM.
Consider `CCCCc1nc2c(N)nnc(N3CCCC3)c2n1Cc1ccc(CN)cc1` [Compound 134, 1-(4-(aminomethyl)benzyl)-2-butyl-7-(pyrrolidin-1-yl)-1H-imidazo[4,5-d]pyridazin-4-amine], for which the EC50 on human TLR8 was over 20000 nM; at human TLR7 (24 h incubation, SEAP readout), 0.274 µM.
As for `CCCCc1nc2c(N)nnc(OC(C)C)c2n1Cc1ccc(CNC2CS(=O)(=O)C2)cc1` [Compound 37, 3-((4-((4-amino-2-butyl-7-isopropoxy-1H-imidazo[4,5-d]pyridazin-yl)methyl)benzyl)amino)thietane 1,1-dioxide], the EC50 on human TLR8 was over 20000 nM; at human TLR7 (24 h incubation, SEAP readout) it was 0.317 µM.
In the case of `CCCCc1nc2c(N)nnc(/C=C/C(C)C)c2n1C[C@H]1CC[C@H](CN)CC1` [Compound 137, 1-(((1R,4R)-4-(aminomethyl)cyclohexyl)methyl)-2-butyl-7-((E)-3-methylbut-1-en-1-yl)-1H-imidazo[4,5-d]pyridazin-4-amine], the EC50 at human TLR8 was over 20000 nM; on human TLR7 (24 h incubation, SEAP readout), 0.145 µM.
Consider `CCCCc1nc2c(N)nnc(OC(C)C)c2n1CCCCCCN(C(C)=O)C1CS(=O)(=O)C1` [Compound 155, N-[6-(7-amino-2-butyl-4-isopropoxy-imidazo[4,5-d]pyridazin-3-yl)hexyl]-N-(1,1-dioxothietan-3-yl)acetamide hydrochloride salt], for which the EC50 on human TLR8 was over 20000 nM; on human TLR7 (24 h incubation, SEAP readout) it was 0.596 µM.
`CCCCc1nc2c(N)nnc(-c3ccco3)c2n1Cc1ccc(OC)cc1` [Compound 55, 2-butyl-7-(furan-2-yl)-1-(4-methoxybenzyl)-1H-imidazo[4,5-d]pyridazine-4-amine]: the EC50 at human TLR8 is over 20000 nM; at human TLR7 (24 h incubation, SEAP readout) it was 1.57 µM.
On to `CCNCc1nc2c(N)nnc(OC(C)C)c2n1Cc1ccc(CN)cc1` [Compound 164, 3-[[4-(aminomethyl)phenyl]methyl]-2-(ethylaminomethyl)-4-isopropoxy-imidazo[4,5-d]pyridazin-7-amine], for which the activation at 20 µM came out at 10.8% on human TLR8 and 4.8% on human TLR7 (24 h, at 20000 nM).
`CCCCc1nc2c(N)nnc(OC(C)C)c2n1Cc1cccnc1` [Compound 74, 2-butyl-7-isopropoxy-1-(pyridin-3-ylmethyl)-1H-imidazo[4,5-d]pyridazin-4-amine]: the EC50 on human TLR8 came to 17900 nM; at human TLR7 (24 h incubation, SEAP readout), 0.586 µM.
On human TLR8, `CCCCc1nc2c(N)nnc(C3=CCNC3)c2n1Cc1ccc(CN)cc1` [Compound 144, 1-[[4-(aminomethyl)phenyl]methyl]-2-butyl-7-(2,5-dihydro-1H-pyrrol-3-yl)imidazo[4,5-d]pyridazin-4-amine] yielded an activation at 20 µM of 14.7%. On human TLR7 (μM), the EC50 was over 20 µM.
On to `CCCCc1nc2c(N)nnc(OC(C)C)c2n1Cc1ccc(CN(C)C)cc1` [Compound 116, 2-butyl-1-(4-((dimethylamino)methyl)benzyl)-7-isopropoxy-1H-imidazo[4,5-d]pyridazin-4-amine], for which the EC50 at human TLR8 was found to be 1820 nM; at human TLR7 (24 h incubation, SEAP readout), 0.034 µM.
In the case of `CCCCc1nc2c(N)nnc(OC(C)C)c2n1Cc1ccc(CNS(C)(=O)=O)cc1` [Compound 115, N-(4-((4-amino-2-butyl-7-isopropoxy-1H-imidazo[4,5-d]pyridazin-1-yl)methyl)benzyl)methanesulfonamide], the EC50 at human TLR8 is over 16500 nM; on human TLR7 (24 h incubation, SEAP readout), 0.107 µM.
Turning to `CCCCc1nc2c(N)nnc(OC(C)C)c2n1Cc1ccc(CNC(=O)CCOC)cc1` [Compound 107, N-(4-((4-amino-2-butyl-7-isopropoxy-1H-imidazo[4,5-d]pyridazin-1-yl)methyl)benzyl)-3-methoxypropanamide], the EC50 on human TLR8 was over 20000 nM; on human TLR7 (24 h incubation, SEAP readout), 0.205 µM.
Regarding `CCCCc1nc2c(N)nnc(-c3ccoc3)c2n1Cc1ccc(OC)cc1` [Compound 67, 2-butyl-7-(furan-3-yl)-1-(4-methoxybenzyl)-1H-imidazo[4,5-d]pyridazin-4-amine], the EC50 was over 20000 nM at human TLR8 and 2.06 µM on human TLR7 (24 h incubation, SEAP readout).
`CCCCc1nc2c(N)nnc(OC(C)C)c2n1Cc1ccccc1` [Compound 80, 1-benzyl-2-butyl-7-isopropoxy-1H-imidazo[4,5-d]pyridazin-4-amine hydrochloride]: the EC50 is over 20000 nM at human TLR8 and 0.169 µM on human TLR7 (24 h incubation, SEAP readout).
As for `CCC[S+]([O-])c1nc2c(N)nnc(OC(C)C)c2n1Cc1ccc(CN)cc1` (stereo not shown) [Compound 162, 3-[[4-(aminomethyl)phenyl]methyl]-4-isopropoxy-2-propylsulfinyl-imidazo[4,5-d]pyridazin-7-amine], the EC50 at human TLR8 was over 20000 nM; at human TLR7 (24 h incubation, SEAP readout) it was 6.7 µM.
In the case of `CCCCc1nc2c(N)nnc(OC3CCOC3)c2n1Cc1ccc(OC)cc1` (stereo not shown) [Compound 56, 2-butyl-1-(4-methoxybenzyl)-7-((tetrahydrofuran-3-yl)oxy)-1H-imidazo[4,5-d]pyridazin-4-amine], the EC50 at human TLR8 is over 20000 nM; at human TLR7 (24 h incubation, SEAP readout), 0.231 µM.
As to `CCCCc1nc2c(N)nnc(OC(C)C)c2n1Cc1ccc(CNC2CCOCC2)cc1` [Compound 82, 2-butyl-7-isopropoxy-1-(4-(((tetrahydro-2H-pyran-4-yl)amino)methyl)benzyl)-1H-imidazo[4,5-d]pyridazin-4-amine hydrochloride], the EC50 on human TLR8 was 303 nM; on human TLR7 (24 h incubation, SEAP readout), 0.013 µM.
